According to patent publication US6914045B2, “Glycopeptide antibiotics” (Wyeth Holdings Corporation, priority 2001, dated 2005):
In brackets after ≈: the same amount, converted by molar mass.

What was measured:
Enterococcus sp. = assay: in vitro antibacterial evaluation, MIC by broth dilution; type: cell-based; settings: broth dilution, 18 hours at 35° C.
Method in brief: (§1)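 Step 1: dilute antibiotic across 64-0.06 μg/mL in Muller-Hinton II […]. Step 2: inoculate at 5×10^5 CFU/mL.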

Escherichia coli = assay: as above; type: cell-based; settings: 18 hours at 35° C.
Method in brief: as §1

Staphylococcus sp. = assay: as above; type: cell-based; settings: broth dilution, 18 hours at 35° C.
Method in brief: as §1

Streptococcus sp. = assay: as above; type: cell-based; settings: broth dilution, 18 hours at 35° C.
Method in brief: as §1

[1] = test system: Staphylococcus aureus-SMITH (GC 4543); assay: acute lethal infection in mice; type: in vivo; settings: acute lethal infection, female CD-1 mice, intraperitoneal challenge, intravenous 30 min. after infection, 7 day survival
Method in brief: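 Intraperitoneal challenge of female CD-1 mice with a bacterial dose lethal to untreated animals within 24-48 hr; single iv treatment 30 min later, 5 mice per dose level. Survival is scored at day 7 and pooled from three experiments to give the median effective dose.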

CC(c1ccccc1)C1NC(=O)CNC(=O)C(CO)NC(=O)C(C(O)C2CNC(=N)N2C2OC(CO)C(O)C(O)C2O)NC(=O)C(C(O)C2CNC(=N)N2)NC(=O)C(Cc2ccc(OC3OC(CO)C(OC4OC5COC(Cc6ccc(Cl)cc6)OC5C(O)C4O)C(O)C3O)cc2)NC1=O (stereo not drawn) [Example 120, Cyclo[glycyl-β-methylphenylalanyl-O-[4-O-[4,6-O-(4-chlorophenethylidene)hexopyranosyl]-hexopyranosyl]tyrosyl-3-(2-iminoimidazolidin-4-yl)seryl-3-(3-hexopyranosyl-2-iminoimidazolidin-4-yl)serylseryl]]
MIC Enterococcus avium (GC 4558) (Enterococcus sp.; Enterococcus avium (GC 4558)): 1 µg/mL (≈ 0.698 µM) | MIC Enterococcus faecalis (ATCC 29212) (Enterococcus sp.; Enterococcus faecalis (ATCC 29212)): 1 µg/mL (≈ 0.698 µM) | MIC Enterococcus faecalis (GC 2242) (Enterococcus sp.; Enterococcus faecalis (GC 2242)): 1 µg/mL (≈ 0.698 µM) | MIC Enterococcus faecalis (GC 2691) (Enterococcus sp.; Enterococcus faecalis (GC 2691)): 1 µg/mL (≈ 0.698 µM) | MIC Enterococcus faecalis (GC 3059) (Enterococcus sp.; Enterococcus faecalis (GC 3059)): 1 µg/mL (≈ 0.698 µM) | MIC Enterococcus faecalis (GC 4552) (Enterococcus sp.; Enterococcus faecalis (GC 4552)): 1 µg/mL (≈ 0.698 µM) | MIC Enterococcus faecalis (GC 4553) (Enterococcus sp.; Enterococcus faecalis (GC 4553)): 1 µg/mL (≈ 0.698 µM) | MIC Enterococcus faecalis (GC 4554) (Enterococcus sp.; Enterococcus faecalis (GC 4554)): 1 µg/mL (≈ 0.698 µM) | MIC Enterococcus faecalis (GC 6189) (Enterococcus sp.; Enterococcus faecalis (GC 6189)): 1 µg/mL (≈ 0.698 µM) | MIC Enterococcus faecium (GC 2243) (Enterococcus sp.; Enterococcus faecium (GC 2243)): 1 µg/mL (≈ 0.698 µM) | MIC Enterococcus faecium (GC 4556) (Enterococcus sp.; Enterococcus faecium (GC 4556)): 1 µg/mL (≈ 0.698 µM) | MIC Enterococcus faecium (GC 4557) (Enterococcus sp.; Enterococcus faecium (GC 4557)): 1 µg/mL (≈ 0.698 µM) | MIC Enterococcus faecalis (ATCC 29212) (Enterococcus sp.; strain ATCC 29212): 1 µg/mL (≈ 0.698 µM) | MIC Enterococcus faecalis (GC 2242) (Enterococcus sp.; strain GC 2242): 1 µg/mL (≈ 0.698 µM) | MIC Enterococcus faecium (GC 2243) (Enterococcus sp.; strain GC 2243): 1 µg/mL (≈ 0.698 µM) | MIC Enterococcus faecalis (GC 2691) (Enterococcus sp.; strain GC 2691): 1 µg/mL (≈ 0.698 µM) | MIC Enterococcus faecalis (GC 3059) (Enterococcus sp.; strain GC 3059): 1 µg/mL (≈ 0.698 µM) | MIC Enterococcus faecalis (GC 4552) (Enterococcus sp.; strain GC 4552): 1 µg/mL (≈ 0.698 µM) | MIC Enterococcus faecalis (GC 4553) (Enterococcus sp.; strain GC 4553): 1 µg/mL (≈ 0.698 µM) | MIC Enterococcus faecalis (GC 4554) (Enterococcus sp.; strain GC 4554): 1 µg/mL (≈ 0.698 µM) | MIC Enterococcus faecium (GC 4556) (Enterococcus sp.; strain GC 4556): 1 µg/mL (≈ 0.698 µM) | MIC Enterococcus faecium (GC 4557) (Enterococcus sp.; strain GC 4557): 1 µg/mL (≈ 0.698 µM) | MIC Enterococcus avium (GC 4558) (Enterococcus sp.; strain GC 4558): 1 µg/mL (≈ 0.698 µM) | MIC Enterococcus faecalis (GC 6189) (Enterococcus sp.; strain GC 6189): 1 µg/mL (≈ 0.698 µM) | MIC Escherichia coli (ATCC 25922) (Escherichia coli; strain ATCC 25922): 16 µg/mL (≈ 11.2 µM) | MIC Escherichia coli (GC 4559) (Escherichia coli; strain GC 4559): 16 µg/mL (≈ 11.2 µM) | MIC Escherichia coli (GC 4560) (Escherichia coli; strain GC 4560): <0.5 µg/mL | MIC Coagulase Negative Staphylococcus (GC 4547) (Staphylococcus sp.): 1 µg/mL (≈ 0.698 µM) | MIC Coagulase Negative Staphylococcus (GC 4548) (Staphylococcus sp.): <0.5 µg/mL | MIC Coagulase Negative Staphylococcus (GC 4549) (Staphylococcus sp.): <0.5 µg/mL | MIC Coagulase Negative Staphylococcus (GC 4551) (Staphylococcus sp.): <0.5 µg/mL | MIC Coagulase Negative Staphylococcus (GC 6257) (Staphylococcus sp.): <0.5 µg/mL | MIC Staphylococcus aureus (ATCC 29213) (Staphylococcus sp.): <0.5 µg/mL | MIC Staphylococcus aureus (GC 1131) (Staphylococcus sp.): <0.5 µg/mL | MIC Staphylococcus aureus (GC 3051) (Staphylococcus sp.): <0.5 µg/mL | MIC Staphylococcus aureus (GC 3053) (Staphylococcus sp.): 1 µg/mL (≈ 0.698 µM) | MIC Staphylococcus aureus (GC 4541) (Staphylococcus sp.): <0.5 µg/mL | MIC Staphylococcus aureus (GC 4542) (Staphylococcus sp.): <0.5 µg/mL | MIC Staphylococcus aureus (GC 4544) (Staphylococcus sp.): <0.5 µg/mL | MIC Staphylococcus aureus (GC 4545) (Staphylococcus sp.): <0.5 µg/mL | MIC Staphylococcus aureus-SMITH (GC 4543) (Staphylococcus sp.): <0.5 µg/mL | MIC Staphylococcus haemolyticus (GC 4546) (Staphylococcus sp.): <0.5 µg/mL | MIC Staphylococcus aureus (GC 1131) (Staphylococcus sp.; inoculum 5×10^5 CFU/mL, strain GC 1131): <0.5 µg/mL | MIC Staphylococcus aureus (ATCC 29213) (Staphylococcus sp.; strain ATCC 29213): <0.5 µg/mL | MIC Staphylococcus aureus (GC 3051) (Staphylococcus sp.; strain GC 3051): <0.5 µg/mL | MIC Staphylococcus aureus (GC 3053) (Staphylococcus sp.; strain GC 3053): 1 µg/mL (≈ 0.698 µM) | MIC Staphylococcus aureus (GC 4541) (Staphylococcus sp.; strain GC 4541): <0.5 µg/mL | MIC Staphylococcus aureus (GC 4542) (Staphylococcus sp.; strain GC 4542): <0.5 µg/mL | MIC Staphylococcus aureus (GC 4544) (Staphylococcus sp.; strain GC 4544): <0.5 µg/mL | MIC Staphylococcus aureus (GC 4545) (Staphylococcus sp.; strain GC 4545): <0.5 µg/mL | MIC Staphylococcus haemolyticus (GC 4546) (Staphylococcus sp.; strain GC 4546): <0.5 µg/mL | MIC Coagulase Negative Staphylococcus (GC 4547) (Staphylococcus sp.; strain GC 4547): 1 µg/mL (≈ 0.698 µM) | MIC Coagulase Negative Staphylococcus (GC 4548) (Staphylococcus sp.; strain GC 4548): <0.5 µg/mL | MIC Coagulase Negative Staphylococcus (GC 4549) (Staphylococcus sp.; strain GC 4549): <0.5 µg/mL | MIC Coagulase Negative Staphylococcus (GC 4551) (Staphylococcus sp.; strain GC 4551): <0.5 µg/mL | MIC Coagulase Negative Staphylococcus (GC 6257) (Staphylococcus sp.; strain GC 6257): <0.5 µg/mL | MIC Staphylococcus aureus-SMITH (GC 4543) (Staphylococcus sp.; strain SMITH GC 4543): <0.5 µg/mL | MIC Streptococcus agalactiae (GC 4564) (Streptococcus sp.; Streptococcus agalactiae (GC 4564)): <0.5 µg/mL | MIC Streptococcus pneumoniae (ATCC 6301) (Streptococcus sp.; Streptococcus pneumoniae (ATCC 6301)): <0.5 µg/mL | MIC Streptococcus pneumoniae (GC 1894) (Streptococcus sp.; Streptococcus pneumoniae (GC 1894)): <0.5 µg/mL | MIC Streptococcus pneumoniae (GC 4565) (Streptococcus sp.; Streptococcus pneumoniae (GC 4565)): <0.5 µg/mL | MIC Streptococcus pyogenes (GC 4563) (Streptococcus sp.; Streptococcus pyogenes (GC 4563)): <0.5 µg/mL | MIC Streptococcus pneumoniae (ATCC 6301) (Streptococcus sp.; strain ATCC 6301): <0.5 µg/mL | MIC Streptococcus pneumoniae (GC 1894) (Streptococcus sp.; strain GC 1894): <0.5 µg/mL | MIC Streptococcus pyogenes (GC 4563) (Streptococcus sp.; strain GC 4563): <0.5 µg/mL | MIC Streptococcus agalactiae (GC 4564) (Streptococcus sp.; strain GC 4564): <0.5 µg/mL | MIC Streptococcus pneumoniae (GC 4565) (Streptococcus sp.; strain GC 4565): <0.5 µg/mL | median effective dose (ED50), Staphylococcus aureus-SMITH (GC 4543) [1]: 0.06 mg/kg
